Data as given in US5208259A, “Diaryl ether hetrocycles” (Imperial Chemical Industries, priority 1989, dated 1993).

What was measured:
[1] = system: 5-LO; experiment: Test b) heparinised human blood challenged with A23187, LTB4 radioimmunoassay; assay type: cell-based; details: A23187, against LTB4
Protocol: b) An in vitro assay system involving incubating a test compound with heparinised human blood, prior to challenge with the calcium ionophore A23187 and then indirectly measuring the inhibitory effects on 5-L0 by assaying the amount of LTB4 using the specific radioimmunoassay described by Carey and Forder (F. Carey and R. A. Forder, Brit. J. Pharmacol. 1985, 84, 34P) which involves the use of a protein-LTB4 conjugate produced using the procedure of Young et alia (Prostaglandins, 1983, 26(4), 605-613). The effects of a test compound on the enzyme cyclooxygenase (which is involved in the alternative metabolic pathway for arachidonic acid and gives rise to prostaglandins, thromboxanes and related metabolites) may be measured at the same time using the specific radioimmunoassay for thromboxane B2 (TxB2) described by Carey and Forder (see above). This test provides an indication of the effects of a test compound against 5-L0 and also cylooxygenase in the presence of blood cells and proteins. It permits the selectivity of the inhibitory effect on 5-L0 or cyclooxygenase to be assessed.

[2] = system: 5-LO; experiment: Test c) ex vivo assay: oral administration, blood collection, A23187 challenge, radioimmunoassay of LTB4; assay type: in vivo
Protocol: c) An ex vivo assay system, which is a variation of test b) above, involving administration of a test compound (usually orally as the suspension produced when a solution of the test compound in dimethylsulphoxide is added to carboxymethylcellulose), blood collection, heparinisation, challenge with A23187 and radioimmunoassay of LTB4 and TxB2. This test provides an indication of the bioavailability of a test compound as an inhibitor of 5-L0 or cyclooxygenase.

[3] = system: 5-LO; experiment: Test g) zymosan-induced liberation of LTB4 within air pouch of male rats; assay type: in vivo; details: 3 h; Test g), rat air pouch, oral
Protocol: g) An in vivo system involving measuring the effects of a test compound administered orally against the liberation of LTB4 induced by zymosan within an air pouch generated within the subcutaneous tissue of the back of male rats. The rats are anaesthetised and air pouches are formed by the injection of sterile air (20 ml). A further injection of air (10 ml) is similarly given after 3 days). At 6 days after the initial air injection the test compound is administered (usually orally as the suspension produced when a solution of the test compound in dimethylsulphoxide is added to hydroxypropylmethylcellulose), followed by the intrapouch injection of zymosan (1 ml of a 1% suspension in physiological saline). After 3 hours the rats are killed, the air pouches are lavaged with physiological saline, and the specific radioimmunoassay described above is used to assay LTB4 in the washings. This test provides an indication of inhibitory effects against 5-L0 in an inflammatory milieu.

| Structure (SMILES) | IC50 [1] | ED50 [2] | ED50 [3] |
| --- | --- | --- | --- |
| COC1(c2cccc(Sc3ccc4ccccc4c3)c2)CCOCC1 [4-methoxy-4-[3-(naphth-2-ylthio)phenyl]tetrahydropyran] | < 150 nM | 3 mg/kg | < 10 mg/kg |
| CO[C@]1(c2cc(F)cc(Sc3ccc(C(C)(C)C)cc3)c2)CCO[C@@H](C)C1 [(2S,4R)-4-[5-fluoro-3-(4-tert-butylphenylthio)phenyl]-4-methoxy-2-methyltetrahydropyran] | < 150 nM | 2 mg/kg | 0.75 mg/kg |
